Key:
[1] = molecular target: T1, cannabinoid receptor 1 (CB1R) (Homo sapiens, UniProt P21554); test: cAMP GloSensor 22F, agonist-stimulated CB1R; type: cell-based; conditions: preincubation with 100 μM or 10 μM; 10 µM forskolin
T1 construct: expressed in transfected cells; host or cells: HEK293A, transient
Description: (§1) Next, we used the classical cAMP GloSensor technology to assess the target selectivity profile of 33. […] In addition, we tested the effects of 33 on cAMP changes mediated by agonist-stimulated GPCRs phylogenetically close to GPR3 and coupling to Gs or Gi/o proteins.
(§2) BRET-based GPCR conformational sensor experiments
(§3) Cells expressing the conformational GPCR biosensors were grown for 24 h (stable cells) or 48 h (transiently transfected cells) in white 96-well plates and washed with 100 µl of HBSS. After washing, cells were incubated for 2 minutes with a 1/1000 solution of the furimazine stock solution (Promega; cat. no. N1662). Three baseline BRET reads were recorded and averaged prior to the addition of serial dilutions of ligands or veh icle control and subsequent BRET reads. […] BRE T donor emission was quantified with a 470/80 nm monochromator. […] Experiments were carried out using a CLARIOstar plate reader.
(§4) FRET- and BRET-based measurements of cAMP levels and Gs dissociation/reassociation Transfected cells grown in black 96-well plates were washed twice with 100 µl of HBSS 48 h after transfection and incubated with HBSS. […] Three baseline FRET/BRET reads were recorded and averaged prior to the addition of serial dilutions of ligands or vehicle control and sub-sequent FRET/BRET reads. […] FRET donor emission was quantified with a 480/10 nm filter. […]
(§5) Luminescence measurement using the cAMP GloSensor™ 22F […]

[2] = molecular target: T2, adenosine A2B receptor (A2BR) (Homo sapiens, UniProt P29275); test: cAMP GloSensor 22F, agonist-stimulated A2BR; type: cell-based; conditions: preincubation with 100 μM or 10 μM
T2 construct: expressed in transfected cells; host or cells: HEK293A, transient
T2 sequence (P29275 1-332): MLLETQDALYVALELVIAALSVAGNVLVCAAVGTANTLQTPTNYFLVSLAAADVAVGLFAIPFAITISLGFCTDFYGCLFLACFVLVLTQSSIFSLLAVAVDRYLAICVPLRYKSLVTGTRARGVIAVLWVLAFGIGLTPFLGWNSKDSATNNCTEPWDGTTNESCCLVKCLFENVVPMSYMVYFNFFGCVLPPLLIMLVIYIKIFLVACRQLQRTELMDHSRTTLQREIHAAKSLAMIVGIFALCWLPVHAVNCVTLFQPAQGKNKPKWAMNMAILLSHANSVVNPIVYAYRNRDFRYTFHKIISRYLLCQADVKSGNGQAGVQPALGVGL
Description: as §1, §2, §3, §4, §5

T1 sequence (P21554 whole entry, species assumed): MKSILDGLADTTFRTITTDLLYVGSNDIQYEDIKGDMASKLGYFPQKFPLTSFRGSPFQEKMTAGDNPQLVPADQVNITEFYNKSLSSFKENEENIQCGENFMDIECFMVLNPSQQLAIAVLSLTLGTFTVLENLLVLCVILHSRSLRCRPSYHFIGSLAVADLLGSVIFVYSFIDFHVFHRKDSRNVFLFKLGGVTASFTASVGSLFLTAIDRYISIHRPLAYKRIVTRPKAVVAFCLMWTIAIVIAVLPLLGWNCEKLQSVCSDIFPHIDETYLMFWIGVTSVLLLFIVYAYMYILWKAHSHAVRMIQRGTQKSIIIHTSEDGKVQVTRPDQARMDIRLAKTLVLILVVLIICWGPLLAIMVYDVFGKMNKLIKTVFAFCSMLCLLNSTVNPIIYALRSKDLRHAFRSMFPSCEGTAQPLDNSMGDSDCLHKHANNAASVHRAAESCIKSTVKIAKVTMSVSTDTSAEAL

N=c1n(Cc2ccccc2)c2ccccc2n1CC1CC1 [compound 33]
effect on agonist-induced cAMP change mediated by CB1R [1]: neither 100 μM nor 10 μM 33 significantly altered
effect on agonist-induced cAMP change mediated by A2BR [2]: neither 100 μM nor 10 μM 33 significantly altered
